The text below walks through data of patent US20220274997A1, “PIM KINASE INHIBITOR COMPOSITIONS AND USES THEREOF” (Snap Bio, Inc., priority 2019, published 2022).

The term EC50 denotes the concentration at which the effect is half-maximal. A higher EC50 goes with lower potency in that assay. One may read the IC50 as the point on the concentration scale where inhibition reaches its midpoint. Read a high IC50 as lower potency.

Test [1] deals with DU-145. As to the kind of experiment: CellTiter-Glo cancer cell growth inhibition, DU-145. The format is cell-based. Conditions: Homo sapiens, DU-145, 72 h. An excerpt:
(§1) The CellTiter-Glo® Luminescent Cell Viability Assay is a sensitive homogeneous method to determine the number of viable cells in culture, Detection is based on using the luciferase reaction to measure the amount of ATP from viable cells. The amount of ATP in cells correlates with cell viability. Within minutes after a loss of membrane integrity, cells lose the ability to synthesize ATP, and endogenous ATPases destroy any remaining ATP; thus the levels of ATP fall precipitously. The CellTiter-Glo® Reagent does three things upon addition to cells. It lyses cell membranes to release ATP; it inhibits endogenous ATPases, and it provides luciferin, luciferase and other reagents necessary to measure ATP using a bioluminescent reaction. The unique properties of a proprietary stable luciferase. There is a linear relationship (r2=0.99) between the luminescent signal and the number of cells from 0 to 50.000 cells per well.
All assays were performed by Reaction Biology Corporation (Malvern, Pa.) or ChemDiv, Inc. (San Diego, Calif.). […]
Conditions: 37° C., air 95%; HEPA-filtered carbon dioxide (CO2) 5%, humidified atmosphere. • Cells were grown in 175 cm^2 flasks to 80-90% of confluency. • Culture media was aspirated and cell layer was briefly rinsed with Versen solution to remove all traces of serum. • 2 mL of accutase was added to cells. • Flasks were retuned to incubator for 5 min to allow cell detachment. • Add 6.0 mL of complete growth medium. • Single cell suspension was created by gently pipetting. • Cells were counted using a Hematocytometer and a suspension with the desired cell concentration was prepared. […]
Stock solutions ([…]) were diluted with cell culture media to produce 500× serial dilutions and […] of final compound dilutions were added to cells in assay plates to screen a series of 10 doses starting at 100 mM. […] Luminescence intensity was measured for each well using the Tecan M 1000 microplate reader after 5 min of incubation with CellTiter-Glo Reagent. The number of viable cells in culture was determined based on quantitation of the ATP present in each culture well. […]

The test system of test [2] is Huh7. As to the kind of experiment: CellTiter-Glo cancer cell growth inhibition, Huh7. Type of test: cell-based. The note with it: Homo sapiens, Huh-7, 72 h.
Text: as §1, with “luciferase.” for “luciferase. There is a linear relationship (r2=0.99) between the luminescent signal and the number of cells from 0 to 50.000 cells per well.”
All assays were performed by Reaction Biology Corporation (Malvern, Pa.) or ChemDiv, Inc. (San Diego, Calif.). All cell lines were purchased from American Type Culture Collection (ATCC, Manassas, Va.), except Huh 7 (RIKEN, Toyo, Japan) and HepaRG (Life Technologies, Carlsbad, Calif.).
Stock solutions ([…]) were diluted with cell culture media to produce 500× serial dilutions and […] of final compound dilutions were added to cells in assay plates to screen a series of 10 doses starting at […]. Final DMSO concentration was 0.2%. Assay plates are centrifuged at 100 rpm, 1 minute and kept at 37° C., 5% CO2, humidified atmosphere. […] Luminescence intensity was measured for each well using the Tecan M 1000 microplate reader after 5 min of incubation with CellTiter-Glo Reagent. The number of viable cells in culture was determined based on quantitation of the ATP present in each culture well. […] The EC50 curves were plotted and […] values were calculated using the GraphPad Prism 4 program based on a sigmoidal dose-response equation.

In test [3] the target is T1, PIM3 (Homo sapiens, UniProt Q86V86).
T1 construct: purchased SignalChem, Richmond, Canada P37-10BG
As to the kind of experiment: LANCE Ultra kinase assay, PIM3. Type of test: biochemical. The note with it: LANCE assay. An excerpt: (§2) The second assay used was Perkin Elmer's LANCE® Ultra kinase assay which uses a ULight™-labeled peptide substrate and an appropriate Europium-labeled anti-phospho antibody. When the substrate becomes phosphorylated by a kinase of interest, the phosphorylated site on the substrate is recognized by the Europium-labeled anti-phospho antibody. […] The intensity of light emission is proportional to the level of ULight peptide phosphorylation. A kinase inhibitor reduces the FRET signal, thus providing an accurate and sensitive measure of inhibition potency.
(§3) The assay was performed in 384-well plates in two steps: PIM kinases were mixed with the ULight-substrate (CREBtide) in buffer and incubated for 10 min. Subsequently, ATP and molecules of the present disclosure were added in a kinase buffer at the appropriate concentration and the reactions were incubated for 1 hour, at room temperature in the dark. • After 1 h EDTA was added to stop the kinase reaction, Eu-W1024-labeled anti-phosphoserine-CREB (Ser133) Antibody (anti-phosphoCREBtide specific antibody) was added to the reaction in LANCE Detection buffer. The mixture was allowed to incubate for 30 min to allow binding of the antibody to the phosphorylated site before the plate was read using a Tecan microplate reader
(§4) Kinase Assay Buffer—50 mM HEPES pH7.0.1 mM EGTA, 10 mM MgCl2, 0.01% BRU-35.
(§5) The inhibitory activity of each compound against PIM kinases was measured with the LANCE® Ultra Kinase Assays by ChemDiv, Inc. (San Diego, Calif.).
Background: Time-resolved FRET reads energy transfer from a long-lived donor to a nearby acceptor.

Test [4] concerns the target T2, PIM1 (Homo sapiens, UniProt P11309).
T2 construct: purchased ProQinase, Freiburg, Germany 0186-0000-1
Put plainly: LANCE Ultra kinase assay, PIM1. The format is biochemical.
Text: as §2, §3, §4, §5

Test [5] deals with T3, PIM2 (Homo sapiens, UniProt Q9P1W9).
T3 construct: purchased ProQinase, Freiburg, Germany 0223-0000-1
T3 sequence (Q9P1W9 whole entry): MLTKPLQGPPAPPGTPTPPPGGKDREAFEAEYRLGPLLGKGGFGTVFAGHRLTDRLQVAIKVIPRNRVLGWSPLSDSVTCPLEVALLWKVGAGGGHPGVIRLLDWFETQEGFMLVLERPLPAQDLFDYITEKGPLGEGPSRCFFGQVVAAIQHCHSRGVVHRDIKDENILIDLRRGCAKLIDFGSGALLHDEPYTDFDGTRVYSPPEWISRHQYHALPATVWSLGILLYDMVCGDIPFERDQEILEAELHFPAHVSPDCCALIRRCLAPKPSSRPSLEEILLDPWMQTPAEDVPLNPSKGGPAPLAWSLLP
Put plainly: LANCE Ultra kinase assay, PIM2. Type of test: biochemical.
Text: as §2, §3, §4, §5

T2 sequence (P11309 whole entry): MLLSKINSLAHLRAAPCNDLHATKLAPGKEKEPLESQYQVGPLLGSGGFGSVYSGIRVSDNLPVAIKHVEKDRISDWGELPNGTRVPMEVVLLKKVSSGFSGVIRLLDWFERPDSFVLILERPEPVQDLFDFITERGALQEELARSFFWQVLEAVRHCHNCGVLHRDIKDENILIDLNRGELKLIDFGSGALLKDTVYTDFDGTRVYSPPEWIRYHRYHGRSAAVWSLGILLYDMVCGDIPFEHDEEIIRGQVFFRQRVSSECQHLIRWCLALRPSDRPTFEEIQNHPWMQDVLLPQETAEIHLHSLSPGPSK

As for `O=C1NC(=O)c2c1c1c3ccccc3[nH]c1c1c2c2cc(F)c(O)cc2n1CCN1CCOCC1` [Compound 19, 3-fluoro-2-hydroxy-13-(2-morpholin-4-ylethyl)-12,13-dihydro-5H-indolo[2,3-a]pyrrolo[3,4-c]carbazole-5,7(6H)-dione], the results for the EC50 in test [1] and in test [2] were 40 nM and 80 nM, respectively. For the same compound, the IC50 stood at 1 nM in test [3] (ATP 0.1 mM); 4.3 nM in test [3] (ATP 1 mM); 0.23 nM in test [4] (ATP 0.1 mM); 0.82 nM in test [4] (ATP 1 mM); 3.2 nM in test [5] (ATP 0.1 mM); 4.9 nM in test [5] (ATP 1 mM).

On to `O=C1NC(=O)c2c1c1c3cc(F)c(O)cc3[nH]c1c1c2c2ccccc2n1CCN1CCOCC1` [Compound 18, 3-fluoro-2-hydroxy-12-(2-morpholin-4-ylethyl)-12,13-dihydro-5H-indolo[2,3-a]pyrrolo[3,4-c]carbazole-5,7(6H)-dione], for which the EC50 in test [1] and in test [2] was 41 nM each time. For the same compound, the values for the IC50 in test [3] (ATP 1 mM), in test [4] (ATP 1 mM) and in test [5] (ATP 1 mM) were 9.5 nM, 1.7 nM and 41 nM, respectively.
